Results published in ChEMBL document CHEMBL3885881, “DrugMatrix”.

Experiments:
Rattus norvegicus [1] = organism: Rattus norvegicus; assay: DrugMatrix - Regimen: Daily Repeat; assay type: toxicity, organism-based, Sprague-Dawley; set-up: regimen Daily Repeat, gender Male, age 6-8 weeks; details: in vivo, po, 60 mg/kg, route oral GAVAGE, dose level High, vehicle 100 % WATER
Rattus norvegicus [2] = organism: Rattus norvegicus; assay type: toxicity, organism-based, Sprague-Dawley; details: in vivo, po, 60 mg/kg, 24 h, route oral GAVAGE, dose level High, time 1 day, vehicle 100 % WATER
Description: DrugMatrix - Regimen: Single

[3] = […], tissue Plasma, time 14 day

Nc1ccc(O)c(N)c1 [2,4-DIAMINOPHENOL]
URIC ACID (Rattus norvegicus [1]; 120 h, tissue Plasma, time 5 day): 0.67 mg/dL
ABSOLUTE BASOPHIL (Rattus norvegicus [1]; […], tissue Blood, time 14 day): 0 CELLS/uL
ABSOLUTE EOSINOPHIL (Rattus norvegicus [1]; […], tissue Blood, time 14 day): 124 CELLS/uL
ABSOLUTE LYMPHOCYTE (Rattus norvegicus [1]; […], tissue Blood, time 14 day): 13347.2 CELLS/uL
ABSOLUTE MONOCYTE (Rattus norvegicus [1]; […], tissue Blood, time 14 day): 291 CELLS/uL
ABSOLUTE SEGMENTED NEUTROPHIL (Rattus norvegicus [1]; […], tissue Blood, time 14 day): 2297.8 CELLS/uL
BASOPHIL (Rattus norvegicus [1]; […], tissue Blood, time 14 day): 0%
EOSINOPHIL (Rattus norvegicus [1]; […], tissue Blood, time 14 day): 0.8%
ERYTHROCYTE COUNT (Rattus norvegicus [1]; […], tissue Blood, time 14 day): 5.92 x10E6/uL
HEMATOCRIT (Rattus norvegicus [1]; […], tissue Blood, time 14 day): 34.56%
HEMOGLOBIN (Rattus norvegicus [1]; […], tissue Blood, time 14 day): 13 G/DL
LEUKOCYTE COUNT (Rattus norvegicus [1]; […], tissue Blood, time 14 day): 16.06 x10E3/uL
LYMPHOCYTE (Rattus norvegicus [1]; […], tissue Blood, time 14 day): 83%
MEAN CORPUSCULAR HEMOGLOBIN (Rattus norvegicus [1]; […], tissue Blood, time 14 day): 22.04 pg
MEAN CORPUSCULAR HEMOGLOBIN CONCENTRATION (Rattus norvegicus [1]; […], tissue Blood, time 14 day): 37.6 G/DL
MEAN CORPUSCULAR VOLUME (Rattus norvegicus [1]; […], tissue Blood, time 14 day): 58.5 fL
MONOCYTE (Rattus norvegicus [1]; […], tissue Blood, time 14 day): 1.8%
NEUTROPHIL (Rattus norvegicus [1]; […], tissue Blood, time 14 day): 14.4%
NUCLEATED RED BLOOD CELLS (Rattus norvegicus [1]; […], tissue Blood, time 14 day): 0 /100WBC
PLATELET COUNT (Rattus norvegicus [1]; […], tissue Blood, time 14 day): 944.4 x10E3/uL
ALANINE AMINOTRANSFERASE (Rattus norvegicus [1]; [3]): 40.4 u/L
ALBUMIN (Rattus norvegicus [1]; [3]): 4.32 G/DL
ALKALINE PHOSPHATASE (Rattus norvegicus [1]; [3]): 271.4 u/L
ASPARTATE AMINOTRANSFERASE (Rattus norvegicus [1]; [3]): 76.6 u/L
BLOOD UREA NITROGEN (Rattus norvegicus [1]; [3]): 13.6 mg/dL
CARBON DIOXIDE (Rattus norvegicus [1]; [3]): 30.4 mmol/L
CHLORIDE (Rattus norvegicus [1]; [3]): 101.8 MEQ/L
CHOLESTEROL (Rattus norvegicus [1]; [3]): 67.4 mg/dL
CREATININE (Rattus norvegicus [1]; [3]): 0.15 mg/dL
GLUCOSE (Rattus norvegicus [1]; [3]): 150 mg/dL
LACTATE DEHYDROGENASE (Rattus norvegicus [1]; [3]): 271.8 u/L
LIPASE (Rattus norvegicus [1]; [3]): 7.8 u/L
PHOSPHORUS (Rattus norvegicus [1]; [3]): 13.62 mg/dL
POTASSIUM (Rattus norvegicus [1]; [3]): 6.71 MEQ/L
SODIUM (Rattus norvegicus [1]; [3]): 145.8 MEQ/L
TOTAL BILIRUBIN (Rattus norvegicus [1]; [3]): 0.14 mg/dL
TOTAL PROTEIN (Rattus norvegicus [1]; [3]): 6.06 G/DL
URIC ACID (Rattus norvegicus [1]; [3]): 1.14 mg/dL
ABSOLUTE EOSINOPHIL (Rattus norvegicus [2]; tissue Blood): 80.67 CELLS/uL
ABSOLUTE LYMPHOCYTE (Rattus norvegicus [2]; tissue Blood): 10585.67 CELLS/uL
ABSOLUTE MONOCYTE (Rattus norvegicus [2]; tissue Blood): 630.67 CELLS/uL
ABSOLUTE SEGMENTED NEUTROPHIL (Rattus norvegicus [2]; tissue Blood): 1169.67 CELLS/uL
BASOPHIL (Rattus norvegicus [2]; tissue Blood): 0%
EOSINOPHIL (Rattus norvegicus [2]; tissue Blood): 0.67%
ERYTHROCYTE COUNT (Rattus norvegicus [2]; tissue Blood): 4.98 x10E6/uL
HEMATOCRIT (Rattus norvegicus [2]; tissue Blood): 31.37%
HEMOGLOBIN (Rattus norvegicus [2]; tissue Blood): 11.7 G/DL
LEUKOCYTE COUNT (Rattus norvegicus [2]; tissue Blood): 12.47 x10E3/uL
LYMPHOCYTE (Rattus norvegicus [2]; tissue Blood): 85%
MEAN CORPUSCULAR HEMOGLOBIN (Rattus norvegicus [2]; tissue Blood): 23.63 pg
MEAN CORPUSCULAR HEMOGLOBIN CONCENTRATION (Rattus norvegicus [2]; tissue Blood): 37.37 G/DL
MEAN CORPUSCULAR VOLUME (Rattus norvegicus [2]; tissue Blood): 63.17 fL
MONOCYTE (Rattus norvegicus [2]; tissue Blood): 5%
NEUTROPHIL (Rattus norvegicus [2]; tissue Blood): 9.33%
NUCLEATED RED BLOOD CELLS (Rattus norvegicus [2]; tissue Blood): 0 /100WBC
PLATELET COUNT (Rattus norvegicus [2]; tissue Blood): 963 x10E3/uL
ALANINE AMINOTRANSFERASE (Rattus norvegicus [2]; tissue Plasma): 60.67 u/L
ALBUMIN (Rattus norvegicus [2]; tissue Plasma): 4.43 G/DL
ALKALINE PHOSPHATASE (Rattus norvegicus [2]; tissue Plasma): 366.33 u/L
ASPARTATE AMINOTRANSFERASE (Rattus norvegicus [2]; tissue Plasma): 78.33 u/L
BLOOD UREA NITROGEN (Rattus norvegicus [2]; tissue Plasma): 12 mg/dL
CARBON DIOXIDE (Rattus norvegicus [2]; tissue Plasma): 27 mmol/L
CHLORIDE (Rattus norvegicus [2]; tissue Plasma): 103.33 MEQ/L
CHOLESTEROL (Rattus norvegicus [2]; tissue Plasma): 77.33 mg/dL
CREATININE (Rattus norvegicus [2]; tissue Plasma): 0.13 mg/dL
GLUCOSE (Rattus norvegicus [2]; tissue Plasma): 149 mg/dL
LACTATE DEHYDROGENASE (Rattus norvegicus [2]; tissue Plasma): 159 u/L
LIPASE (Rattus norvegicus [2]; tissue Plasma): 8 u/L
PHOSPHORUS (Rattus norvegicus [2]; tissue Plasma): 12.77 mg/dL
POTASSIUM (Rattus norvegicus [2]; tissue Plasma): 6.85 MEQ/L
SODIUM (Rattus norvegicus [2]; tissue Plasma): 145.33 MEQ/L
TOTAL BILIRUBIN (Rattus norvegicus [2]; tissue Plasma): 0.1 mg/dL
TOTAL PROTEIN (Rattus norvegicus [2]; tissue Plasma): 6 G/DL
URIC ACID (Rattus norvegicus [2]; tissue Plasma): 1.37 mg/dL
